From patent US11498899B2, “Nitrone herbicides” (FMC Corporation, priority 2016, dated 2022)

Key:
[1] = system: barnyardgrass (Echinochloa crus-galli); experiment: Test B flooded paddy test, visual rating 0-100; conditions: Flood, 250 g ai/ha, applied to paddy water, rated after 13 to 15 days
[2] = system: rice (Oryza sativa); experiment: Test B flooded paddy test, visual rating 0-100 (0 no effect, 100 complete control); conditions: Flood, 250 g ai/ha, applied to paddy water, rated after 13 to 15 days
[3] = system: corn (Zea mays); experiment: Test A postemergence, visual injury rating 0-100; assay type: in vivo; conditions: 0 to 100 scale
Excerpt: (§1) Seeds of plant species selected from barnyardgrass (Echinochloa crus-galli), kochia (Kochia scoparia), ragweed (common ragweed, Ambrosia elatior), ryegrass, Italian (Italian ryegrass, Lolium multiflorum), foxtail, giant (giant foxtail, Setaria faberii), foxtail, green (green foxtail, Setaria viridis), and pigweed (Amaranthus retroflexus) were planted into a blend of loam soil and sand and treated preemergence with a directed soil spray using test chemicals formulated in a non-phytotoxic solvent mixture which included a surfactant.
(§2) At the same time, plants selected from these weed species and also wheat (Triticum aestivum), corn (Zea mays), blackgrass (Alopecurus myosuroides), and galium (catchweed bedstraw, Galium aparine) were planted in pots containing the same blend of loam soil and sand and treated with postemergence applications of test chemicals formulated in the same manner. Plants ranged in height from 2 to 10 cm and were in the one- to two-leaf stage for the postemergence treatment. Treated plants and untreated controls were maintained in a greenhouse for approximately 10 days, after which time all treated plants were compared to untreated controls and visually evaluated for injury. […] A dash (-) response means no test result.

[4] = system: kochia (Kochia scoparia); experiment: Test A postemergence, visual injury rating 0-100; assay type: in vivo; conditions: 0 to 100 scale
Excerpt: as §1, §2

[5] = system: pigweed (Amaranthus retroflexus); experiment: Test A postemergence, visual injury rating 0-100; assay type: in vivo; conditions: 0 to 100 scale
Excerpt: as §1, §2

[6] = system: barnyardgrass (Echinochloa crus-galli); experiment: Test A postemergence, visual injury rating 0-100; assay type: in vivo; conditions: 0 to 100 scale
Excerpt: as §1, §2

[7] = system: blackgrass (Alopecurus myosuroides); experiment: Test A postemergence, visual injury rating 0-100; assay type: in vivo; conditions: 0 to 100 scale
Excerpt: as §1, §2

[8] = system: foxtail, giant (giant foxtail, Setaria faberii); experiment: Test A postemergence, visual injury rating 0-100; assay type: in vivo; conditions: 0 to 100 scale
Excerpt: as §1, §2

[9] = system: ragweed (common ragweed, Ambrosia elatior); experiment: Test A postemergence, visual injury rating 0-100; assay type: in vivo; conditions: 0 to 100 scale
Excerpt: as §1, §2

[10] = system: wheat (Triticum aestivum); experiment: Test A postemergence, visual injury rating 0-100; assay type: in vivo; conditions: 0 to 100 scale
Excerpt: as §1, §2

[11] = system: galium (catchweed bedstraw, Galium aparine); experiment: Test A postemergence, visual injury rating 0-100; assay type: in vivo; conditions: 0 to 100 scale
Excerpt: as §1, §2

[12] = system: ryegrass, Italian (Italian ryegrass, Lolium multiflorum); experiment: Test A postemergence, visual injury rating 0-100; assay type: in vivo; conditions: 0 to 100 scale
Excerpt: as §1, §2

[13] = system: ducksalad (Heteranthera limosa); experiment: Test B flooded paddy test, visual rating 0-100; conditions: Flood, 250 g ai/ha, applied to paddy water, rated after 13 to 15 days
[14] = system: barnyardgrass (Echinochloa crus-galli); experiment: Test A preemergence, visual injury rating 0-100 (0 no effect, 100 complete control); assay type: in vivo; conditions: for Barnyardgrass plant response rating (0 to 100 scale): 125 g ai/ha
Excerpt: as §1, §2

[15] = system: kochia (Kochia scoparia); experiment: Test A preemergence, visual injury rating 0-100; assay type: in vivo
Excerpt: as §1, §2

[16] = system: pigweed (Amaranthus retroflexus); experiment: Test A preemergence, visual injury rating 0-100; assay type: in vivo
Excerpt: as §1, §2

[17] = system: foxtail, giant (giant foxtail, Setaria faberii); experiment: Test A preemergence, visual injury rating 0-100; assay type: in vivo; conditions: for Foxtail, Giant plant response rating (0 to 100 scale): 125 g ai/ha
Excerpt: as §1, §2

[18] = system: ragweed (common ragweed, Ambrosia elatior); experiment: Test A preemergence, visual injury rating 0-100; assay type: in vivo
Excerpt: as §1, §2

[19] = system: ryegrass, Italian (Italian ryegrass, Lolium multiflorum); experiment: Test A preemergence, visual injury rating 0-100; assay type: in vivo
Excerpt: as §1, §2

[20] = 31 g ai/ha, 0 to 100 scale (0 no effect, 100 complete control), approx. 10 days

Structure (SMILES) | Barnyardgrass plant response rating (0 to 100 scale) [1] | Rice plant response rating (0 to 100 scale) [2] | Corn plant response rating ([3]; 125 g ai/ha) | Corn plant response rating ([3]; 500 g ai/ha) | Kochia plant response rating ([4]; 125 g ai/ha) | Pigweed plant response rating ([5]; 125 g ai/ha) | Barnyardgrass plant response rating ([6]; 125 g ai/ha) | Blackgrass plant response rating ([7]; 125 g ai/ha) | Foxtail, Giant plant response rating ([8]; 125 g ai/ha) | Ragweed plant response rating ([9]; 125 g ai/ha) | Wheat plant response rating ([10]; 125 g ai/ha) | Galium plant response rating ([11]; 125 g ai/ha) | Ryegrass, Italian plant response rating ([12]; 125 g ai/ha) | Ducksalad plant response rating (0 to 100 scale) [13] | Barnyardgrass plant response rating (0 to 100 scale) [14] | Kochia plant response rating (0 to 100 scale) ([15]; 125 g ai/ha) | Pigweed plant response rating (0 to 100 scale) ([16]; 125 g ai/ha) | Foxtail, Giant plant response rating (0 to 100 scale) [17] | Ragweed plant response rating (0 to 100 scale) ([18]; 125 g ai/ha) | Ryegrass, Italian plant response rating (0 to 100 scale) ([19]; 125 g ai/ha) | other results
CC1=[N+]([O-])C(C(=O)Nc2cccc(F)c2F)C(c2cccc(C(C)C)c2)C1 (racemic) [Compound 12] | 70 | 0 | 50 | 90 | 0 | 0 | 10 | 0 | 90 | 0 | 20 | 50 | 0 | 80 | 100 | 0 | 0 | 100 | 0 | 0 | Kochia plant response rating ([4]; 500 g ai/ha): 30; Pigweed plant response rating ([5]; 500 g ai/ha): 20; Barnyardgrass plant response rating ([6]; 500 g ai/ha): 90; Blackgrass plant response rating ([7]; 500 g ai/ha): 50; Foxtail, Giant plant response rating ([8]; 500 g ai/ha): 90; Ragweed plant response rating ([9]; 500 g ai/ha): 40; Wheat plant response rating ([10]; 500 g ai/ha): 70; Galium plant response rating ([11]; 500 g ai/ha): 70; Ryegrass, Italian plant response rating ([12]; 500 g ai/ha): 50; Barnyardgrass plant response rating ([14]; 500 g ai/ha, 0 to 100 scale): 100; Kochia plant response rating ([15]; 500 g ai/ha, 0 to 100 scale): 50; Pigweed plant response rating ([16]; 500 g ai/ha, 0 to 100 scale): 30; Foxtail, Giant plant response rating ([17]; 500 g ai/ha, 0 to 100 scale): 100; Ragweed plant response rating ([18]; 500 g ai/ha, 0 to 100 scale): 90; Ryegrass, Italian plant response rating ([19]; 500 g ai/ha, 0 to 100 scale): 90
CC1=[N+]([O-])C(C(=O)Nc2cccc(F)c2F)C(c2c(F)cccc2Cl)C1 (racemic) [Compound 14] | 40 | 0 | 0 | 0 | 0 | 0 | 0 | 0 | 0 | 0 | 0 | 0 | 0 | 20 | 0 | 0 | 0 | 0 | 0 | 0 | Kochia plant response rating ([4]; 500 g ai/ha): 0; Pigweed plant response rating ([5]; 500 g ai/ha): 0; Barnyardgrass plant response rating ([6]; 500 g ai/ha): 0; Blackgrass plant response rating ([7]; 500 g ai/ha): 0; Foxtail, Giant plant response rating ([8]; 500 g ai/ha): 0; Ragweed plant response rating ([9]; 500 g ai/ha): 0; Wheat plant response rating ([10]; 500 g ai/ha): 0; Galium plant response rating ([11]; 500 g ai/ha): 0; Ryegrass, Italian plant response rating ([12]; 500 g ai/ha): 0; Barnyardgrass plant response rating ([14]; 500 g ai/ha, 0 to 100 scale): 0; Kochia plant response rating ([15]; 500 g ai/ha, 0 to 100 scale): 0; Pigweed plant response rating ([16]; 500 g ai/ha, 0 to 100 scale): 0; Foxtail, Giant plant response rating ([17]; 500 g ai/ha, 0 to 100 scale): 0; Ragweed plant response rating ([18]; 500 g ai/ha, 0 to 100 scale): 0; Ryegrass, Italian plant response rating ([19]; 500 g ai/ha, 0 to 100 scale): 0
CC1=[N+]([O-])C(C(=O)Nc2cccc(F)c2F)C(c2cccc(C)c2)C1 (racemic) [Compound 15] | 85 | 15 | 60 | 90 | 0 | 0 | 90 | 0 | 80 | 0 | 40 | 0 | 30 | 95 | 100 | 0 | 0 | 100 | 0 | 0 | Kochia plant response rating ([4]; 500 g ai/ha): 30; Pigweed plant response rating ([5]; 500 g ai/ha): 40; Barnyardgrass plant response rating ([6]; 500 g ai/ha): 90; Blackgrass plant response rating ([7]; 500 g ai/ha): 30; Foxtail, Giant plant response rating ([8]; 500 g ai/ha): 90; Ragweed plant response rating ([9]; 500 g ai/ha): 50; Wheat plant response rating ([10]; 500 g ai/ha): 50; Galium plant response rating ([11]; 500 g ai/ha): 30; Ryegrass, Italian plant response rating ([12]; 500 g ai/ha): 50; Barnyardgrass plant response rating ([14]; 500 g ai/ha, 0 to 100 scale): 100; Kochia plant response rating ([15]; 500 g ai/ha, 0 to 100 scale): 30; Pigweed plant response rating ([16]; 500 g ai/ha, 0 to 100 scale): 0; Foxtail, Giant plant response rating ([17]; 500 g ai/ha, 0 to 100 scale): 100; Ragweed plant response rating ([18]; 500 g ai/ha, 0 to 100 scale): 90; Ryegrass, Italian plant response rating ([19]; 500 g ai/ha, 0 to 100 scale): 50
CC1=[N+]([O-])C(C(=O)Nc2cccc(F)c2F)C(c2ccc(F)c(Oc3ccc(F)cn3)c2)C1 (racemic) [Compound 48] | 20 | 10 | 0 | – | 0 | 30 | 0 | 70 | 0 | 30 | 0 | 40 | 30 | 70 | 90 | 0 | 0 | 90 | 0 | 20 | Corn plant response rating ([3]; 31 g ai/ha): 0; Kochia plant response rating ([4]; 31 g ai/ha): 0; Pigweed plant response rating ([5]; 31 g ai/ha): 0; Barnyardgrass plant response rating ([6]; 31 g ai/ha): 0; Blackgrass plant response rating ([7]; 31 g ai/ha): 30; Foxtail, Giant plant response rating ([8]; 31 g ai/ha): 0; Ragweed plant response rating ([9]; 31 g ai/ha): 0; Wheat plant response rating ([10]; 31 g ai/ha): 0; Galium plant response rating ([11]; 31 g ai/ha): 20; Ryegrass, Italian plant response rating ([12]; 31 g ai/ha): 30; Barnyardgrass plant response rating [14, 20]: 0; Kochia plant response rating [15, 20]: 0; Pigweed plant response rating [16, 20]: 0; Foxtail, Giant plant response rating [17, 20]: 0; Ragweed plant response rating [18, 20]: 0; Ryegrass, Italian plant response rating [19, 20]: 0
CC1=[N+]([O-])C(C(=O)Nc2cccc(F)c2F)C(c2cccc(C)n2)C1 (racemic) [Compound 49] | 0 | 0 | 0 | 0 | 0 | 0 | 0 | 0 | 0 | 20 | 0 | 0 | 0 | 0 | 10 | 0 | 0 | 0 | 0 | 0 | Kochia plant response rating ([4]; 500 g ai/ha): 0; Pigweed plant response rating ([5]; 500 g ai/ha): 0; Barnyardgrass plant response rating ([6]; 500 g ai/ha): 0; Blackgrass plant response rating ([7]; 500 g ai/ha): 0; Foxtail, Giant plant response rating ([8]; 500 g ai/ha): 0; Ragweed plant response rating ([9]; 500 g ai/ha): 20; Wheat plant response rating ([10]; 500 g ai/ha): 0; Galium plant response rating ([11]; 500 g ai/ha): 0; Ryegrass, Italian plant response rating ([12]; 500 g ai/ha): 30; Barnyardgrass plant response rating ([14]; 500 g ai/ha, 0 to 100 scale): 20; Kochia plant response rating (0 to 100 scale) ([15]; 500 g ai/ha): 0; Pigweed plant response rating (0 to 100 scale) ([16]; 500 g ai/ha): 0; Foxtail, Giant plant response rating ([17]; 500 g ai/ha, 0 to 100 scale): 40; Ragweed plant response rating (0 to 100 scale) ([18]; 500 g ai/ha): 0; Ryegrass, Italian plant response rating (0 to 100 scale) ([19]; 500 g ai/ha): 20
